The results in this text go back to patent US8822451B2, “Modulators of ATP-binding cassette transporters” (Vertex Pharmaceuticals Incorporated, priority 2005, dated 2014).

For this test, the target named is T1, […]F508-CFTR (Homo sapiens, UniProt P13569, DEL508-508).
T1 construct: expressed in transfected cells
Kind of test: Assay results of Table 3: ΔF508-CFTR modulation, membrane potential optical assay (assay format not stated). The test is classed as cell-based. The following applies: NIH3T3 mouse fibroblasts stably expressing […]F508-CFTR (optical assays); for Efficacy: efficacy range; for EC50: potency range. In a few lines: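 Two VIPR II FRET voltage-dye formats in ΔF508-CFTR NIH3T3 cells yield EC50 and efficacy. Potentiator mode: 27° C.-corrected cells get compound in Cl⁻-free medium, forskolin 2-10 μM after 22 s (final Cl⁻ 28 mM). Corrector mode: compound 16 h at 37° C., activation with forskolin 10 μM plus genistein 20 μM.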

Structures are written as SMILES. Where only a bound is given, the exact number is not on record here.

T1 sequence (P13569 with tags, fused parts or gaps DEL508-508): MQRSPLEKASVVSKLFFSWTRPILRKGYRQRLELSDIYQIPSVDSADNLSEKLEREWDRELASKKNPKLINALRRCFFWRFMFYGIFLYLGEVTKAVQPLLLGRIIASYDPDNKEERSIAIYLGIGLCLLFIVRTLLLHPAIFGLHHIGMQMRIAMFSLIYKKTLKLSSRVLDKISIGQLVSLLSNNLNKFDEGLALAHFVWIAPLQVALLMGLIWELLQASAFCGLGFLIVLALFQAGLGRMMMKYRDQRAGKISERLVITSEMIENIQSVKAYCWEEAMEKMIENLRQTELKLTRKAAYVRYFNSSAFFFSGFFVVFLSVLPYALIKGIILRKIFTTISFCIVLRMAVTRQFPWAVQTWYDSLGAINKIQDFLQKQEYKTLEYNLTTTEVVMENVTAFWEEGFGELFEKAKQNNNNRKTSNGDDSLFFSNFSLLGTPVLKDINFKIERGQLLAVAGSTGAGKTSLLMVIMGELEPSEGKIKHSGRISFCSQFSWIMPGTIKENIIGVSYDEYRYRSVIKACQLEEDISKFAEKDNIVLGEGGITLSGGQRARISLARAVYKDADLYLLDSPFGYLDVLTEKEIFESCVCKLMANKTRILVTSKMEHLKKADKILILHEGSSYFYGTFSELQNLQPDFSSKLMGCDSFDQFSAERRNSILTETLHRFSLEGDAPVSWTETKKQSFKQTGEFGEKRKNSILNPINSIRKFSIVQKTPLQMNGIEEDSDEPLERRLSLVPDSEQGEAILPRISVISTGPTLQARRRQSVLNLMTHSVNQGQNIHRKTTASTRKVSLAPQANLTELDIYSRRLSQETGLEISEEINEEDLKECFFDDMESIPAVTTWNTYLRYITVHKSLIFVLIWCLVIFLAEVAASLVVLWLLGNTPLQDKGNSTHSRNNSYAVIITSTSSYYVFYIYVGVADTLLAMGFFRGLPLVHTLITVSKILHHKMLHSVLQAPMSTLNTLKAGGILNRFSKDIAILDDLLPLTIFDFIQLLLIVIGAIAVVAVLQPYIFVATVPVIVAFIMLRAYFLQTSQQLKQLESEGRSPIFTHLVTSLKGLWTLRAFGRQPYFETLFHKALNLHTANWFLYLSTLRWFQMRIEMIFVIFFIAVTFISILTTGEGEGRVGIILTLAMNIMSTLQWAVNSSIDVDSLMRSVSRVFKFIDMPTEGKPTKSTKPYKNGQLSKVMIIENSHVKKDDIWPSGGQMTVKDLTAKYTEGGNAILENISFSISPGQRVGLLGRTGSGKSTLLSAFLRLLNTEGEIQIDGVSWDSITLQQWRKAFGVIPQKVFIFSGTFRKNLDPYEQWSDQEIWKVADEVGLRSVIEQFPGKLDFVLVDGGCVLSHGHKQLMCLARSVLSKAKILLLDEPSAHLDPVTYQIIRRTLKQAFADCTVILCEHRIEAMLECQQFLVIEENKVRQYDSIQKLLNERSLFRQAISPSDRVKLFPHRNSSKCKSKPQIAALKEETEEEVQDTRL

With `CCN(CC)c1nc(C(N)=O)cc(-c2cc(F)cc(F)c2)n1` [Compound 151], the Efficacy result is given as “+++ (+++ corresponds to Efficacy greater than 100)” and the EC50 lay in the range of 1 to 5 µM.

On to `NC(=O)c1cc(-c2ccccc2OC(F)(F)F)nc(N2CCCCC2)n1` [Compound 152], for which the Efficacy entry was “++ (++ corresponds to Efficacy between 100 and 50)”; the EC50 was 1 to 5 µM.

As to `CNC(=O)c1cc(-c2ccccc2)nc(N2CC=CCC2)n1` [Compound 153], the Efficacy result is “++ (++ corresponds to Efficacy between 100 and 50)”; the EC50 is more than 5 µM.

On to `C#CCNc1nc(C(N)=O)cc(-c2ccccc2)n1` [Compound 154], for which the Efficacy result is listed as “+ (+ corresponds to Efficacy less than 50)” and the half-maximal effective concentration (EC50) is more than 5 µM.

In the case of `CCN(CC)c1nc(C(N)=O)cc(-c2ccc(S(=O)(=O)CC)cc2)n1` [Compound 155], the Efficacy result was “++ (++ corresponds to Efficacy between 100 and 50)”; the EC50 is more than 5 µM.

Turning to `CCN(CCO)c1nc(C(=O)NC)cc(-c2ccccc2)n1` [Compound 156], the Efficacy result is on record as “+ (+ corresponds to Efficacy less than 50)” and the EC50 was more than 5 µM.

As to `CCN(CC)c1nc(C(=O)N2CCCCC2)cc(-c2ccccc2)n1` [Compound 157], the Efficacy entry is “+ (+ corresponds to Efficacy less than 50)” and the half-maximal effective concentration (EC50) is more than 5 µM.

On to `CCN(CC)c1nc(C(N)=O)cc(-c2cccc(CO)c2)n1` [Compound 158], for which the Efficacy result is “++ (++ corresponds to Efficacy between 100 and 50)”; the EC50 was more than 5 µM.

Consider `CC(C)CN(C)c1nc(C(N)=O)cc(-c2ccccc2)n1` [Compound 159], for which the Efficacy entry is listed as “+++ (+++ corresponds to Efficacy greater than 100)” and the EC50 lay within 1 to 5 µM.

As to `CCN(CC)c1nc(C(N)=O)cc(-c2cccc(F)c2)n1` [Compound 160], the Efficacy result was “++ (++ corresponds to Efficacy between 100 and 50)”; the concentration for a half-maximal effect (EC50) is more than 5 µM.

With `COc1cccc(-c2cc(C(N)=O)nc(N3CCCCCC3)n2)c1` [Compound 161], the Efficacy result is “+++ (+++ corresponds to Efficacy greater than 100)” and the EC50 fell in the range of 1 to 5 µM.

In the case of `CN(Cc1ccco1)c1nc(C(N)=O)cc(-c2ccccc2)n1` [Compound 162], the Efficacy result is “++ (++ corresponds to Efficacy between 100 and 50)”; the EC50 lay in the range of 1 to 5 µM.

As for `CCN(CC)c1nc(C(N)=O)cc(-c2cc(F)ccc2F)n1` [Compound 163], the Efficacy entry was “++ (++ corresponds to Efficacy between 100 and 50)”; the 50% effective concentration (EC50) is less than 1 µM.

In the case of `CN(Cc1ccccc1)c1nc(C(N)=O)cc(-c2ccccc2)n1` [Compound 164], the Efficacy result is “++ (++ corresponds to Efficacy between 100 and 50)”; the EC50 lay within 1 to 5 µM.

As for `CC1CCN(c2nc(C(N)=O)cc(-c3ccccc3)n2)CC1` [Compound 165], the Efficacy result is “+++ (+++ corresponds to Efficacy greater than 100)” and the concentration for a half-maximal effect (EC50) was more than 5 µM.

Turning to `CC(C)c1ccc(-c2cc(C(N)=O)nc(N3CCCCC3)n2)cc1` [Compound 166], the Efficacy result is reported as “+ (+ corresponds to Efficacy less than 50)” and the EC50 was more than 5 µM.

In the case of `NC(=O)c1cc(-c2ccccc2)nc(N2CCOCC2)n1` [Compound 167], the Efficacy result is “++ (++ corresponds to Efficacy between 100 and 50)”; the 50% effective concentration (EC50) is more than 5 µM.

For the compound `COc1cccc(-c2cc(C(N)=O)nc(N3CCCCC3)n2)c1` [Compound 168], the Efficacy result was “+++ (+++ corresponds to Efficacy greater than 100)” and the EC50 was more than 5 µM.

Regarding `NC(=O)c1cc(-c2ccccc2)nc(N2CCSC2)n1` [Compound 169], the Efficacy result is “+++ (+++ corresponds to Efficacy greater than 100)” and the concentration giving a half-maximal response (EC50) was more than 5 µM.

For the compound `NC(=O)c1cc(-c2cc3ccccc3s2)nc(N2CCCCC2)n1` [Compound 170], the Efficacy entry was “+ (+ corresponds to Efficacy less than 50)” and the EC50 was 1 to 5 µM.

On to `CCCCN(CCCC)c1nc(C(N)=O)cc(-c2ccccc2)n1` [Compound 171], for which the Efficacy result was “++ (++ corresponds to Efficacy between 100 and 50)”; the concentration giving a half-maximal response (EC50) was less than 1 µM.

Consider `CCN(CC)c1nc(C(N)=O)cc(-c2ccc(OC)cc2OC)n1` [Compound 172], for which the Efficacy result is recorded as “+++ (+++ corresponds to Efficacy greater than 100)” and the EC50 was 1 to 5 µM.

With `COc1cccc(-c2cc(C(N)=O)nc(NCc3ccco3)n2)c1` [Compound 173], the Efficacy entry was “++ (++ corresponds to Efficacy between 100 and 50)”; the concentration giving a half-maximal response (EC50) is more than 5 µM.

`CCN(CC)c1nc(C(N)=O)cc(-c2cnc(OC)nc2OC)n1` [Compound 174]: the Efficacy entry was “++ (++ corresponds to Efficacy between 100 and 50)”; the EC50 is more than 5 µM.

For the compound `Cc1cc(-c2cc(C(N)=O)nc(N3CCCCC3)n2)ccc1F` [Compound 175], the Efficacy entry is “++ (++ corresponds to Efficacy between 100 and 50)”; the EC50 is more than 5 µM.

For the compound `COc1ccc(-c2cc(C(N)=O)nc(NCc3ccco3)n2)cc1` [Compound 176], the Efficacy entry was “++ (++ corresponds to Efficacy between 100 and 50)”; the EC50 is more than 5 µM.

Take `CCN(CC)C(=O)C1CCCN(c2nc(C(N)=O)cc(-c3ccccc3)n2)C1` (centres unmarked) [Compound 177]: the Efficacy entry is “++ (++ corresponds to Efficacy between 100 and 50)”; the EC50 was more than 5 µM.

`C=CCNc1nc(C(N)=O)cc(-c2ccccc2OC)n1` [Compound 178]: the Efficacy entry is on record as “+++ (+++ corresponds to Efficacy greater than 100)” and the EC50 lay within 1 to 5 µM.

On to `CNc1nc(C(N)=O)cc(-c2ccccc2)n1` [Compound 179], for which the Efficacy result is recorded as “+ (+ corresponds to Efficacy less than 50)” and the EC50 is more than 5 µM.

Consider `N#CC1(c2ccccc2)CCN(c2nc(C(N)=O)cc(-c3ccccc3)n2)CC1` [Compound 180], for which the Efficacy result is “++ (++ corresponds to Efficacy between 100 and 50)”; the EC50 is more than 5 µM.

For the compound `NC(=O)c1cc(-c2ccccc2)nc(N2CCC(CCO)CC2)n1` [Compound 181], the Efficacy entry was “++ (++ corresponds to Efficacy between 100 and 50)”; the EC50 is more than 5 µM.

As to `NC(=O)c1cc(-c2ccc(OC(F)(F)F)cc2)nc(N2CCCCC2)n1` [Compound 182], the Efficacy entry was “+ (+ corresponds to Efficacy less than 50)” and the EC50 fell in the range of 1 to 5 µM.

For `NC(=O)c1cc(-c2ccccc2)nc(N2CCC2)n1` [Compound 183], the Efficacy entry is “++ (++ corresponds to Efficacy between 100 and 50)”; the EC50 is more than 5 µM.

As to `CCN(CC)c1nc(C(N)=O)cc(-c2ccc(CC(C)C)cc2)n1` [Compound 184], the Efficacy result was “++ (++ corresponds to Efficacy between 100 and 50)”; the 50% effective concentration (EC50) was less than 1 µM.

In the case of `NC(=O)c1cc(-c2cccc(C(F)(F)F)c2)nc(N2CCCCC2)n1` [Compound 185], the Efficacy entry is on record as “+ (+ corresponds to Efficacy less than 50)” and the EC50 was more than 5 µM.

Consider `CCCCCN(C)c1nc(C(N)=O)cc(-c2ccccc2)n1` [Compound 186], for which the Efficacy entry was “+++ (+++ corresponds to Efficacy greater than 100)” and the concentration for a half-maximal effect (EC50) is 1 to 5 µM.

For the compound `COc1ccc(C2(CNc3nc(C(N)=O)cc(-c4ccccc4)n3)CCCC2)cc1OC` [Compound 187], the Efficacy entry is “++ (++ corresponds to Efficacy between 100 and 50)”; the 50% effective concentration (EC50) was 1 to 5 µM.

As for `C=C(C)CN(CC)c1nc(C(N)=O)cc(-c2ccccc2)n1` [Compound 188], the Efficacy entry is recorded as “+++ (+++ corresponds to Efficacy greater than 100)” and the EC50 was less than 1 µM.

As for `COc1ccc(-c2cc(C(N)=O)nc(NCC3CC3)n2)cc1` [Compound 189], the Efficacy entry is on record as “+ (+ corresponds to Efficacy less than 50)” and the EC50 is more than 5 µM.

`CCOCCN(CCOCC)c1nc(C(N)=O)cc(-c2ccccc2)n1` [Compound 190]: the Efficacy result is “++ (++ corresponds to Efficacy between 100 and 50)”; the EC50 is less than 1 µM.

On to `COc1cccc(-c2cc(C(N)=O)nc(N)n2)c1` [Compound 191], for which the Efficacy result is “+ (+ corresponds to Efficacy less than 50)” and the concentration for a half-maximal effect (EC50) is more than 5 µM.

For `COc1ccccc1-c1cc(C(N)=O)nc(NCC2CCCO2)n1` (centres unmarked) [Compound 193], the Efficacy entry was “+++ (+++ corresponds to Efficacy greater than 100)” and the EC50 lay within 1 to 5 µM.

Regarding `CCOc1cccc(-c2cc(C(N)=O)nc(N3CCCCC3)n2)c1` [Compound 194], the Efficacy result is “+++ (+++ corresponds to Efficacy greater than 100)” and the EC50 was 1 to 5 µM.

In the case of `COc1ccc(S(=O)(=O)N2CCN(c3nc(C(N)=O)cc(-c4ccccc4)n3)CC2)cc1` [Compound 195], the Efficacy entry is “++ (++ corresponds to Efficacy between 100 and 50)”; the concentration giving a half-maximal response (EC50) is more than 5 µM.

Take `CC(C)CN(CC(C)C)c1nc(C(N)=O)cc(-c2ccccc2)n1` [Compound 196]: the Efficacy result was “+ (+ corresponds to Efficacy less than 50)” and the EC50 lay within 1 to 5 µM.

Take `CCCN(CC1CC1)c1nc(C(N)=O)cc(-c2ccc(OC)cc2)n1` [Compound 197]: the Efficacy entry was “++ (++ corresponds to Efficacy between 100 and 50)”; the EC50 lay within 1 to 5 µM.

In the case of `CCOc1ccc(-c2cc(C(N)=O)nc(N3CCCCC3)n2)cc1` [Compound 198], the Efficacy entry is listed as “+ (+ corresponds to Efficacy less than 50)” and the concentration for a half-maximal effect (EC50) was 1 to 5 µM.

In the case of `NC(=O)c1cc(-c2cc(Cl)cc(Cl)c2)nc(N2CCCCC2)n1` [Compound 199], the Efficacy result is “++ (++ corresponds to Efficacy between 100 and 50)”; the EC50 was 1 to 5 µM.

In the case of `CCN(CC)c1nc(C(N)=O)cc(-c2ccc(Cl)cc2Cl)n1` [Compound 200], the Efficacy entry was “++ (++ corresponds to Efficacy between 100 and 50)”; the 50% effective concentration (EC50) is less than 1 µM.
